Drawing on ChEMBL document CHEMBL1138722, “3-(2-Methoxytetrahydrofuran-2-yl)pyrazoles: a novel class of potent, selective cyclooxygenase-2 (COX-2) inhibitors” (Bioorg Med Chem Lett, 2004), this text covers inhibition and IC50 for 7 compounds.

pIC50: −log10 of the molar value.

Experiment [1] addresses T1, Prostaglandin G/H synthase 2 (Homo sapiens) (UniProt P35354).
T1 sequence (whole entry): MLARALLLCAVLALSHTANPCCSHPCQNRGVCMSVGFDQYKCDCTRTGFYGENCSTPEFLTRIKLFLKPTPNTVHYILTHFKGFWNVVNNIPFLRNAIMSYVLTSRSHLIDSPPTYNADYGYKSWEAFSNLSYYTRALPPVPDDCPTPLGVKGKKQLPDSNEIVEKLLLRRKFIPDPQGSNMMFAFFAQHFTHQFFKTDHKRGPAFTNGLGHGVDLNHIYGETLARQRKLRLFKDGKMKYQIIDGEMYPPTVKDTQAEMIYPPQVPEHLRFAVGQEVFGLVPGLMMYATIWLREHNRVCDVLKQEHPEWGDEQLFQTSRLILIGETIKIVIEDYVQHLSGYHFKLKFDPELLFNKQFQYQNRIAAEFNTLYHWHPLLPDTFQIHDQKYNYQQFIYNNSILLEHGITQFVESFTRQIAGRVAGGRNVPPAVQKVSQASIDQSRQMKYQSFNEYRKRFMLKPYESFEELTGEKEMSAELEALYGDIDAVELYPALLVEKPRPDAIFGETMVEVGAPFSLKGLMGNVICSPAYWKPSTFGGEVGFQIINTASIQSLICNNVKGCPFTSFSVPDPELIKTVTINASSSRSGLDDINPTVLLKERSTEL
The settings on record: Blood, at 1 µM.
Description: In vitro inhibition of Prostaglandin G/H synthase 2 in human whole blood at 1 uM

For experiment [2], the target named is T1, Prostaglandin G/H synthase 2 (Homo sapiens). The settings on record: Blood, at 10 µM.
Description: In vitro inhibition of Prostaglandin G/H synthase 2 in human whole blood at 10 uM
For experiment [3], the target named is T2, Prostaglandin G/H synthase 1 (Homo sapiens, UniProt P23219). The experiment can be described thus: In vitro inhibition of Prostaglandin G/H synthase 1 in human whole blood at 100 uM. The experiment is classed as tissue-based.
The target in experiment [4] is T2, Prostaglandin G/H synthase 1. The experiment can be described thus: In vitro inhibition of Prostaglandin G/H synthase 1 in human whole blood. Format: tissue-based.
Experiment [5] has as its target T3, Prostaglandin G/H synthase 2 (Homo sapiens, UniProt P35354).
T3 sequence (P35354 whole entry): T1 sequence (whole entry)
Briefly: In vitro inhibition of Prostaglandin G/H synthase 2 in human whole blood. The experiment is classed as tissue-based.

T2 sequence (P23219 whole entry): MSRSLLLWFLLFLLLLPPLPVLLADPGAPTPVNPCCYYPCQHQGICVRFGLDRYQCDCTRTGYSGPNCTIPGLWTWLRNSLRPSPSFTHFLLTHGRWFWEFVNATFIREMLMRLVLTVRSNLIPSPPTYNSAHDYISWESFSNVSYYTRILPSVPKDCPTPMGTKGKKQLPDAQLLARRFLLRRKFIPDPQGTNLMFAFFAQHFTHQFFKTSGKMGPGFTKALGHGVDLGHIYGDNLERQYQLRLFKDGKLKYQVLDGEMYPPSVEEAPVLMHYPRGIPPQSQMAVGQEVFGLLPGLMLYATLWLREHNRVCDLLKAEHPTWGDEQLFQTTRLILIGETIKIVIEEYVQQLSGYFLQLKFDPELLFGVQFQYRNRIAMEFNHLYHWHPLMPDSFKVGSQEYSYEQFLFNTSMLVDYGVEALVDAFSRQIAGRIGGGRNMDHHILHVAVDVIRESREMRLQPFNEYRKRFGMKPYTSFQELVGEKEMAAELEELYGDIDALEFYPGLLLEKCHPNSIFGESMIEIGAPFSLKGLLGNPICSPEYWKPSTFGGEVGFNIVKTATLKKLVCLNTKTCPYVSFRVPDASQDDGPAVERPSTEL

The inhibition is the drop in the measured response relative to a control, in per cent. Read a high inhibition as a strong effect. As for `COC1(c2cc(-c3ccc(S(C)(=O)=O)cc3)n(-c3ccccc3)n2)CCCO1` (stereo not drawn), the results for the inhibition in experiment [1], in experiment [2] and in experiment [3] were 30%, 65% and 20%, respectively.

For orientation: pIC50 means the IC50 on a negative log10 scale, so that one unit is a factor of ten. Consider `COC1(c2cc(-c3ccc(S(C)(=O)=O)cc3)n(-c3ccc(C)cc3)n2)CCCO1` (stereo not drawn), for which the values for the inhibition in experiment [1], in experiment [2] and in experiment [3] were 55%, 90% and 55%, respectively. The pIC50 in experiment [4] is under 4.00; in experiment [5] it was 5.92.

Regarding `COC1(c2cc(-c3ccc(S(C)(=O)=O)cc3)n(-c3ccc(Br)cc3)n2)CCCO1` (stereo not drawn), the inhibition was 13% in experiment [1], 84% in experiment [2] and 72% in experiment [3].

On to `COC1(c2cc(-c3ccc(S(C)(=O)=O)cc3)n(-c3ccc(C(F)(F)F)cc3)n2)CCCO1` (stereo not drawn), for which the inhibition in experiment [1] is 25%; in experiment [2] it was 70%; in experiment [3], 50%.

With `COC1(c2cc(-c3ccc(S(C)(=O)=O)cc3)n(-c3ccc(Cl)cc3)n2)CCCO1` (stereo not drawn), the inhibition in experiment [1] stood at 25%; in experiment [2] it was 80%; in experiment [3], 60%.

With `COC1(c2cc(-c3ccc(S(C)(=O)=O)cc3)n(-c3ccc(C#N)cc3)n2)CCCO1` (stereo not drawn), the inhibition was 30% in experiment [1], 25% in experiment [2] and 0% in experiment [3].

In the case of `COC1(c2cc(-c3ccc(S(C)(=O)=O)cc3)n(-c3ccc(F)cc3)n2)CCCO1` (stereo not drawn), the inhibition in experiment [1] was 40%; in experiment [2], 75%; in experiment [3], 25%.
